Measured values published in publication PMC3982195 (The FEBS journal, 2014).

Columns and labels:
[1] = biological target: T1, cytosolic nucleotidase II (LpcN-II) (Legionella pneumophila, UniProt Q5ZZB6); format: biochemical
[2] = biological target: T1, cytosolic nucleotidase II (LpcN-II); experiment: biochemical; format: binding
[3] = biological target: T1, cytosolic nucleotidase II (LpcN-II); format: biochemical; remark: listed apart in the source
[4] = biological target: T1, cytosolic nucleotidase II (LpcN-II); format: biochemical; remark: listed apart in the source
[5] = tested on: O=[N+]([O-])c1ccc(OP(=O)(O)O)cc1; experiment: purified protein

T1 sequence (Q5ZZB6 1-459 limits assumed): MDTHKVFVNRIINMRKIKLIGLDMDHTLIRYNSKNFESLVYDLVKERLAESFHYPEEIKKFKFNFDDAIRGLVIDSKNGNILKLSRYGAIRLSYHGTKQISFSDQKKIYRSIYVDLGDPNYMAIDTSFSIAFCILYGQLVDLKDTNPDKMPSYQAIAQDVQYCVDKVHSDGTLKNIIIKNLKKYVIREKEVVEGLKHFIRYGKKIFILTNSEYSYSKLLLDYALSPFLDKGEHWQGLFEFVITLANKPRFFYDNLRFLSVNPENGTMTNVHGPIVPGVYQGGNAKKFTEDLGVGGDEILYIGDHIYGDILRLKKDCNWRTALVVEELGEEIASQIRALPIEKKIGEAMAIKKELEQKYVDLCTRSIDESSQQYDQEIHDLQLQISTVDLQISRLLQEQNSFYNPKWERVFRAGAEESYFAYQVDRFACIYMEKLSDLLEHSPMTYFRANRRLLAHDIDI

**Q.** How did the “activation of pNPP hydrolysis; competition with GTP” value [1] turn out when `Nc1nc2c(ncn2[C@@H]2O[C@H](COP(=O)(O)OP(=O)(O)O)[C@@H](O)[C@H]2O)c(=O)[nH]1` [GDP] was run?
**A.** GDP was also found to compete for binding to the GTP binding site

**Q.** Which Kd [2] does the source give for `Nc1nc2c(ncn2[C@@H]2O[C@H](COP(=O)(O)OP(=O)(O)OP(=O)(O)O)[C@@H](O)[C@H]2O)c(=O)[nH]1` [GTP] here?
**A.** 4.1 ± 0.7 mM

**Q.** With `O=c1[nH]cnc2c1ncn2[C@@H]1O[C@H](COP(=O)(O)OP(=O)(O)OP(=O)(O)O)[C@@H](O)[C@H]1O` [ITP] as the compound, how does the “competitive reduction of GTP activation of pNPP hydrolysis” value [3] read?
**A.** indicate that IMP and ITP bind to the GTP-binding site

**Q.** How did the “activation of pNPP hydrolysis by purified enzyme” value [4] turn out when `Nc1nc2c(ncn2[C@H]2C[C@H](O)[C@@H](COP(=O)(O)OP(=O)(O)OP(=O)(O)O)O2)c(=O)[nH]1` [dGTP] was run?
**A.** GTP, dGTP, and GDP showed activation of LpcN-II activity

**Q.** What does the source list for “cytosolic nucleotidase II (LpcN-II) (Legionella pneumophila subsp. pneumophila str. Philadelphia 1)”?
**A.** K0.5 [5]: 5.1 ± 0.9 mM; kcat/Km [5]: 0.1 M⁻¹ s⁻¹
